Reference: article PMC12013085, “Peptides targeting RAB11A–FIP2 complex inhibit HPIV3, RSV, and IAV replication as broad-spectrum antivirals” (Cell & Bioscience, 2025)
Where a SMILES comes first, the peptide text is derived from it.

Columns and labels:
RAB11A–FIP2 complex = assay: In vitro co-IP of mixed 293T lysates (FIP2, N protein, RAB11A)
Description: 293 T cells were individually transfected with plasmids encoding FIP2, the N protein, and RAB11A for 36 h, after which their lysates were mixed for in vitro co-IP analysis. […] All experiments were independently replicated at least twice with consistent results. Statistical significance (*p < 0.05) was determined by two-sided unpaired t-test. Data are presented as means ± SEM
293T cells were transfected with the indicated plasmids for 36 h, and cell lysates were prepared using lysis buffer as described in the Western blot (WB) analysis section. The supernatants were collected and incubated with anti-Flag or anti-Myc magnetic beads (MCE) following the manufacturer’s instructions for co-IP. The immunoprecipitated proteins were then analyzed via WB.

RSV [1] = format: in vivo, nude BALB/c mice
[2] = In vivo biodistribution of Cy5-YT-DRI, IVIS imaging; settings: BALB/c mice, i.p. administration
Description: Female BALB/c mice, aged 6–8 weeks, were randomly divided into two groups. One group received an intraperitoneal injection of PBS (n = 3) for background fluorescence measurement, while the other group received 5 mg/kg Cy5-YT-DRI (n = 3). Bioluminescence readings were performed at various time points using the IVIS Lumina K Series III. Following imaging, mice were euthanized, and the indicated tissues were collected for further evaluation of fluorescence values. The average radiance is expressed as the sum of photons per second from each pixel inside the region of interest per the number of pixels (p s^−1 cm^−2 sr^−1).
Supplementary file 13578_2025_1384_MOESM7_ESM.tif: Supplementary Material 7. Fig. S7. In Vivo biodistribution of Cy5-YT-DRI. (A) Mice were treated with PBS or Cy5-YT-DRI (5mg/kg) via intraperitoneal injection. Bioluminescence readings were conducted at different time points using the IVIS Lumina K Series III for ventral (the upper row) and dorsal (the lower row) views, and the average radiance is expressed as the sum of the photons per second from each pixel inside the region of interest per the number of pixels (p s−1 cm−2 sr−1). (B-F) Representative images of the brains(B), lungs (C), livers (D), kidneys (E), and hearts (F) from the PBS-treated or Cy5-YT-DRI-treated mice. (G) Normalized bioluminescence results are expressed as means ± SEM from at least two experiments. […]

HPIV3, RSV, and IAV = format: cell-based
[3] = test system: HPIV3 clinical strain VR93; format: in vivo, nude BALB/c mice
IAV = format: cell-based, influenza A virus; settings: IAV MOI 0.01, 5 μM, 24 hpi, TCID50
RSV [4] = test system: RSV
WSN virus = format: in vivo, BALB/c mice
[5] = test system: HeLa, A549, MK2, MDCK and HEp-2 cells; settings: CCK-8, 24 h treatment, in the tested cell lines (HeLa, A549, MK2, MDCK, HEp-2)
HPIV3HA-P vRNP = assay: vRNP distribution by immunofluorescence in HPIV3HA-P-infected HeLa cells; format: cell-based; settings: HPIV3HA-P MOI = 0.01, 5 μM peptide, 24 h
Description: (§1) Data are presented as means ± SEM
HeLa cells were cultured on coverslips in 24-well plates overnight and subjected to transfection or/and virus infection as indicated. Following this, cells were fixed with 4% paraformaldehyde for 20 min at room temperature (RT) and permeabilized with 0.2% Triton X-100 for 20 min at RT. Subsequently, cells were blocked with 3% bovine serum albumin (BSA) in PBS for 30 min at RT. The cells were then incubated with primary antibodies diluted in 1% BSA, followed by incubation with secondary antibodies, also diluted in 1% BSA. Nuclei were counterstained with DAPI, and plasma membrane were stained with Dil. Confocal microscopy images were acquired using a Leica confocal microscope.

EV71 = format: cell-based, Enterovirus 71; settings: HeLa cells, EV71 MOI = 0.1, escalating concentrations, 24 hpi, TCID50
HPIV3 VLPs in 293T cells = assay: HPIV3 VLP budding and plasma membrane fraction assay, WB; format: cell-based; settings: 293T cells, compared to Tat-treated control
Description: as §1
The cell lysates were prepared as described for the Western blot (WB) analysis. The supernatant was harvested and clarified by centrifugation at 12,000×g for 5 min. Subsequently, the supernatant was pelleted through a 20% sucrose cushion at 4 °C at 35,000 rpm for 2 h. The VLP pellets obtained were resuspended in PBS and boiled with SDS-PAGE loading buffer at 100 °C for 10 min. Both the cell lysates and the supernatants were then subjected to WB analysis.
293T cells, cultured in 6-cm dishes, were transfected with the indicated plasmids for 24 h. Cell collection was performed through centrifugation at 500×g for 5 min at 4 °C. Subsequently, cytosol, organelle membrane, and plasma membrane-associated proteins were extracted sequentially using the MinuteTM plasma membrane protein isolation and cell fractionation kit (INVENT), following the manufacturer's instructions.

[6] = In vivo drug toxicity study; settings: male ICR mice, 5 or 10 mg/kg i.p. for consecutive 3 days
Description: The 6–8 weeks old male ICR male mice, were randomly assigned into three groups and each group had 5 mice. The mice were i.p. injected with 5 mg/kg YT-DRI, 10 mg/kg YT-DRI, or the same volume of PBS for consecutive 3 days. During the experiment, body weight was recorded for 15 days. At the end of the experiment, the mice were perfused, and tissue samples of heart, liver, lung, and kidney were collected for histopathological examination.
Supplementary file 13578_2025_1384_MOESM8_ESM.tif: Supplementary Material 8. Fig. S8. In vivo safety of YT-DRI. (A) Body weight changes of the 6-week-old ICR mice treated with PBS or 5 mg/kg or 10 mg/kg of YT-DRI at the indicated time points. (B) Hematoxylin and eosin staining of various tissues under an optical microscope for histopathological morphology analysis at 14 days after i.p. administration. Scale bar, 200 μm.

CC[C@@H](C)[C@@H](NC(=O)[C@@H](CC(=O)O)NC(=O)[C@@H](CC(N)=O)NC(=O)[C@@H](CC(C)C)NC(=O)[C@@H](CC(C)C)NC(=O)[C@H](NC(=O)[C@@H](CCCNC(=N)N)NC(=O)[C@H](NC(=O)[C@@H](CCSC)NC(=O)[C@@H](CCC(=O)O)NC(=O)[C@@H](CCC(=O)O)NC(=O)[C@H](NC(=O)[C@@H](CCCNC(=N)N)NC(=O)[C@@H](CCCCN)NC(=O)[C@@H](CCCCN)NC(=O)[C@@H](CCCNC(=N)N)NC(=O)[C@@H](CCCNC(=N)N)NC(=O)[C@@H](CCC(N)=O)NC(=O)[C@@H](CCCNC(=N)N)NC(=O)[C@@H](CCCNC(=N)N)NC(=O)[C@H](N)CCCNC(=N)N)[C@H](C)O)C(C)C)C(C)C)C(=O)N[C@H](Cc1ccc(O)cc1)C(=O)O [YT-DRI] (HELM PEPTIDE1{[dR].[dR].[dR].[dQ].[dR].[dR].[dK].[dK].[dR].[dT].[dE].[dE].[dM].[dV].[dR].[dV].[dL].[dL].[dN].[dD].[dI].[dY]}$$$$V2.0; N-terminus and C-terminus assumed)
N-RAB11A interaction (RAB11A–FIP2 complex): undetectable
interaction between FIP2 and RAB11A (RAB11A–FIP2 complex; in contrast to control peptide Tat): significantly attenuated
body weight loss, RSV-infected mice (RSV [1]; 2 mg/kg i.p. once daily Day 0 to Day 3, vs PBS, n = 5): reduced body weight loss
lung histology, RSV (RSV [1]; 2 mg/kg i.p., 4 dpi, H&E): diminished lung tissue damage
viral RNA copies in the lung, RSV (RSV [1]; 2 mg/kg i.p., 4 dpi, RT-qPCR): lower viral RNA copies
infectious titers in the lung, RSV (RSV [1]; 2 mg/kg i.p., 4 dpi, TCID50): decreased infectious titers
transport across the blood–brain barrier [2]: facilitated transport across the blood–brain barrier
HPIV3 viral growth in WT HeLa cells (HPIV3): significant reduction in viral growth
effect on HPIV3 in RAB11A-KO HeLa cells (HPIV3): moderate and statistically insignificant
IC50 (HPIV3; 36 h): 940 nM
SI (CC50/IC50), HPIV3, A549 (HPIV3; 36 h): > 263.16
SI (CC50/IC50), HPIV3, HeLa (HPIV3; 36 h): > 159.57
SI (CC50/IC50), HPIV3, MDCK (HPIV3; 36 h): > 102.74
replication of HPIV3, RSV, and IAV in coinfection (viral RNA accumulation) (HPIV3, RSV, and IAV): markedly impeded the replication
body weight loss, HPIV3-infected mice ([3]; 2 mg/kg i.p. once daily Day 0 to Day 2, vs PBS, n = 5): less weight loss
lung histology, HPIV3 ([3]; 2 mg/kg i.p., 3 dpi, H&E, vs PBS): reduced lung inflammation
viral RNA copies in the lung, HPIV3 ([3]; 2 mg/kg i.p., 3 dpi, RT-qPCR): significantly decreased
infectious titers in the lung, HPIV3 ([3]; 2 mg/kg i.p., 3 dpi, TCID50): significantly decreased
antiviral effect on IAV infection in RAB11A-KO HeLa cells (IAV): no significant antiviral effect
SI (CC50/IC50), RSV, A549 (RSV [4]; 2 h): > 405.41
SI (CC50/IC50), RSV, HEp-2 (RSV [4]; 2 h): > 681.82
SI (CC50/IC50), RSV, HeLa (RSV [4]; 2 h): > 220.59
SI (CC50/IC50), RSV, MDCK (RSV [4]; 2 h): > 326.09
antiviral effect on RSV infection in RAB11A-KO HeLa cells (RSV [4]; RSV MOI 0.1, 5 μM, 24 hpi, TCID50): no significant antiviral effect
body weight loss, IAV (WSN)-infected mice (WSN virus; 2 mg/kg i.p. once daily Day 0 to Day 4): reduced body weight loss
survival rate, lethal IAV (WSN) infection (WSN virus; 2 mg/kg i.p. once daily Day 0 to Day 4, observed until 14 dpi, n = 5): 80%
viral RNA copies in the lungs, IAV (WSN) (WSN virus; 2 mg/kg i.p., 4 dpi, RT-qPCR, vs PBS): decreased viral RNA copies
lung histology, IAV (WSN) (WSN virus; 2 mg/kg i.p., 4 dpi, vs PBS): milder lung inflammation
CC50 [5]: > 150000 nM
vRNP localization (HPIV3HA-P vRNP): formation of large aggregates of vRNP in the cytoplasm
EV71 replication, treated compared to untreated cells (EV71): no significant differences
levels of N, P, and M proteins in the PM fraction and VLPs (HPIV3 VLPs in 293T cells): reduced levels
acute toxicity: body weight ([6]; body weight recorded for 15 days, 5 mice per group): no significant changes
acute toxicity: histopathological morphology ([6]; heart, liver, lung, kidney, H&E): no significant changes
